# According to US20220135540A1, “POLYMORPHS OF AN FXR AGONIST” (Eli Lilly and Company, priority 2020, published 2022):
# Experiments:
# [1] = Tissue distribution (liver versus plasma and other tissues); type: in vivo; settings: liver relative to plasma, heart and skin, liver vs plasma, kidney, lungs, read-out: concentration in the liver relative to plasma, kidney, lungs, heart, and skin
# From the text: Compound I is preferentially distributed to the liver, which, without being bound by theory, would allow the compound to reach its FXR target in the liver with fewer off-target adverse effects. For example, Compound I has an approximately 20-fold higher concentration in the liver than in the plasma, kidney, lungs, heart, and skin. This trait would likely be particularly beneficial for vulnerable populations, such as children, the elderly, and people with comorbidities.
# [2] = Moisture sorption analysis (MSA); type: physicochemical; settings: for hygroscopicity (overall, from moisture sorption data): 5% to 95% RH; for weight change (loss) between ~95% RH and ~5% RH: desorption step ~95% to ~5% RH; for weight loss upon equilibration at ~5% RH: moisture sorption; for weight change (gain) between ~5% and ~95% RH: sorption step ~5% to ~95% RH
# Procedure: MSA analyses were performed using a VTI SGA-100 Vapor Sorption Analyzer. Sorption and desorption data were collected over a range of 5% to 95% relative humidity (RH) at 10% RH intervals under a nitrogen purge. Samples were not dried prior to analysis. Equilibrium criteria used for analysis were less than 0.0100% weight change in 5 minutes, with a maximum equilibration time of 3 hours if the weight criterion was not met. Data were not corrected for the initial moisture content of the samples. NaCl and PVP were used as calibration standards.
# [3] = Solid form stability when stressed at high relative humidity; type: physicochemical; settings: ~94% RH for 10 days
# Procedure: Polymorphic Form I of Compound I was obtained by slurrying of Compound I in ethyl acetate or methanol at room temperature, or in a mixture IPA:water 1:1 at ˜58° C. Additionally, Form I was obtained by slow cooling of a solution of Compound I in acetonitrile.
# [4] = Slurry interconversion of polymorphic forms; type: physicochemical
# Procedure: Slurry interconversion experiments were performed at temperatures ranging from room temperature to ˜81° C. Solvent systems used for the study were nitromethane, acetonitrile, and a THF/heptane 1:2 (v/v) mixture.
smiles,measurement,setting,value
"Cn1cc(C(=O)O)c2ccc(N3CCC(OCc4c(-c5c(Cl)cccc5Cl)noc4C4CC4)CC3)cc21 [Compound I, 6-(4-((5-cyclopropyl-3-(2,6-dichlorophenyl)isoxazol-4-yl)methoxy)piperidin-1-yl)-1-methyl-1H-indole-3-carboxylic acid]",Kp,[1],~20
"Cn1cc(C(=O)O)c2ccc(N3CCC(OCc4c(-c5c(Cl)cccc5Cl)noc4C4CC4)CC3)cc21 [Form I, 6-(4-((5-cyclopropyl-3-(2,6-dichlorophenyl)isoxazol-4-yl)methoxy)piperidin-1-yl)-1-methyl-1H-indole-3-carboxylic acid]","hygroscopicity (overall, from moisture sorption data)",[2],low hygroscopicity
same,weight change (loss) between ~95% RH and ~5% RH,[2],~0.4 wt %
same,weight loss upon equilibration at ~5% RH,[2],~0.1 wt %
same,weight change (gain) between ~5% and ~95% RH,[2],~0.4 wt %
same,stability as a solid form under humidity stress,[3],remained stable
"Cn1cc(C(=O)O)c2ccc(N3CCC(OCc4c(-c5c(Cl)cccc5Cl)noc4C4CC4)CC3)cc21 [Form II, 6-(4-((5-cyclopropyl-3-(2,6-dichlorophenyl)isoxazol-4-yl)methoxy)piperidin-1-yl)-1-methyl-1H-indole-3-carboxylic acid]","hygroscopicity (overall, from moisture sorption data)",[2],low hygroscopicity
same,weight change (loss) between ~95% RH and ~5% RH,[2],negligible weight change
same,weight loss upon equilibration at ~5% RH,[2],~0.6 wt %
same,weight change (gain) between ~5% and ~95% RH,[2],negligible weight change
same,relative stability among polymorphic forms,[4]; ambient temperature and elevated temperature up to ~81° C.,most stable form
"Cn1cc(C(=O)O)c2ccc(N3CCC(OCc4c(-c5c(Cl)cccc5Cl)noc4C4CC4)CC3)cc21 [I, II, III, IV, V, VI, VII]",XRPD Result of slurry interconversion,"[4]; ACN, RT, 1 day, ~5 mg each",Form II
same,XRPD Result of slurry interconversion,"[4]; Nitromethane, RT, 3 days, ~5 mg each",Form II
same,XRPD Result of slurry interconversion,"[4]; Nitromethane, ~78-81° C., 3 days, ~5 mg each",Form II
"Cn1cc(C(=O)O)c2ccc(N3CCC(OCc4c(-c5c(Cl)cccc5Cl)noc4C4CC4)CC3)cc21 [I, II, III, V]",XRPD Result of slurry interconversion,"[4]; ACN, ~66-69° C., 1 day, ~5 mg each",Form II
"Cn1cc(C(=O)O)c2ccc(N3CCC(OCc4c(-c5c(Cl)cccc5Cl)noc4C4CC4)CC3)cc21 [I, II, VI]",XRPD Result of slurry interconversion,"[4]; THF/heptane 1:2, ~61° C., 1 day, ~15 mg each",Form II
same,XRPD Result of slurry interconversion,"[4]; THF:heptane 1:2, RT, 1 day, ~15 mg each",Form II
